Data published in patent US8088889B2, “Teneurin c-terminal associated peptides (TCAP) and uses thereof” (priority 2002, dated 2012).
Entries after “also recorded” stand apart in the source; their conditions may differ. Ends that are not written are not given here.

How the values were obtained:
Gn11 cells [1] = test: cAMP accumulation in Gn11 immortalized neurons (Example 12); format: cell-based, mouse; conditions: for cAMP accumulation at 1 nM (in words): FIG. 25A/B
Procedure: (§1) Gn11 immortalized neurons were cultured as previously reported (Tellam et al., 1998) Direct cAMP measurements were performed with the nonacetylated version of a commercial kit (Assay Designs, Ann Arbor, Mich.). After starved by serum-free DMEM for 1 hr and replaced with fresh DMEM without serum, cells were treated for 15 min with TCAP, urocortin or vehicle±CRFR1 antagonist PD171729 in the continued presence of forskolin (1_M) and IBMX (100_M. Protein assays: Total protein was determined using the BCA protein assay method (Pierce Co). MTT Assays: Gn11 cells were seeded into 96-well plates and cultured in full serum DMEM until the cells were 30% confluent. Vehicle, 1 nM, 10 nM or 100 nM TCAP-1 were added into each group (n=8). (FIG. 25A) The MTT assay (Sigma Chemicals) was performed at 0, 6, 12, 24 and 48 hours. Flow Cytometry: DNA content of the Gn11 cells was quantified by staining with propridium iodide and analyzed on a FACSCAN flow cytometer (Beckman Instruments).

rats = test: Acoustic startle response after TCAP-1 injection; format: in vivo, rat
Excerpt: Male Wistar rats (250-275 g), were surgically implanted with cannulae (23 gauge) bilaterally into the basolateral nuclei of the amydala (AP −2.8, ML +/−5.0, DV −7.2 mm, from bregma). One week later, the animals were habituated to the acoustic startle reflex (ASR) chambers (MED Associates, grid rod cage measuring 7.5″×3.6″×4.2″), consisting of 25 trials of 120 dB stimuli presented randomly with an inter-stimulus interval of 55-65 seconds, duration of 30 msecs and frequency of 5000 Hz. The same stimulus conditions were used for test days, which consisted of a 25 trial baseline, injection with mouse TCAP-1 (with amidation signal)[SEQ. ID. NO. 40] or vehicle (0.25 μl/side, flow rate 0.5 μl/min), and testing for a further 60 trials post-drug. Each rat received vehicle treatment on the first test day then TCAP-1 (e.g. mouse TCAP-1) in a random and counter balanced fashion in subsequent test days, spaced 48 h apart. On the final test day, all rats again received vehicle treatment. Following histological analysis of cannulae placements, the data of eight rats was retained for statistical analysis.
From the data, rats were divided into high and low anxiety groups depending upon their treatment/baseline ratio for the vehicle. Animals that scored less than one were considered low anxiety, those scoring more than one were considered high anxiety. There were four animals in each anxiety group.

Gn11 cells [2] = test: Total protein, BCA protein assay, Gn11 cells; format: cell-based, mouse; conditions: 1, 10 and 100 nM, after 120 minutes
Procedure: as §1

Gn11 cells [3] = test: MTT assay, Gn11 cells; format: cell-based, mouse; conditions: 48 hours
Procedure: as §1

Gn11 cells [4] = test: Flow cytometry DNA content analysis, Gn11 cells; format: cell-based, mouse; conditions: after 24 hours
Procedure: as §1

N38 hypothalamic cells = test: Microarray gene expression in N38 hypothalamic cells; format: cell-based, mouse; conditions: 1 nM
Procedure: Total RNA (TRNA) was isolated from 3 independent treated and untreated N38 hypothalamic cell cultures, pooled (to reduce the noise), utilizing Trizol Reagent (GIBCO/BRL) following the manufacturer's protocol. The quality of total RNA was assessed using an Agilent 2100 Bioanalyzer (version A.02.01S1232, Agilent Technologies). Only RNA with the OD ratio of 1.99-2.0 at 260/280 was used.
Hybridizations were performed on the Mouse MU74Av2 GeneChip Set (Affymetrix, Santa Clara, Calif.). Samples were prepared for hybridization according to Affymetrix instructions. Briefly, a primer encoding the T7 RNA polymerase promoter linked to oligo-dT17 was used to prime double-stranded cDNA synthesis from each mRNA sample using Superscript II RNase H^− reverse transcriptase (Life Technologies, Rockville, Md.). Each purified (Qiaquick kit, Qiagen) double-stranded cDNA was in vitro transcribed using T7 RNA polymerase (T7 kit; Enzo), incorporating biotin-UTP and biotin-CTP (Enzo Biochemicals, New York, N.Y.) into the cRNAs, followed by purification using RNEasy (Qiagen) and quantitated by measuring absorption at 260 nm/280 nm. Samples were fragmented and hybridized to the Chip for 16 h at 45° C. and scanned (GeneArray scanner, Affymetrix). MicroArray Suite Version 5 (MASv5; Affymetrix) was used to scale intensities across the Genechips to 150 fluorescence units, and to determine expression values for each gene on the chip. The expression value for each gene was determined by calculating the average of differences (perfect match intensity minus mismatch intensity) of the probe pairs in use for the gene.
Gene analysis software: Data analysis was performed using two independent softwares, GeneChip and GeneSpring. To identify differentially expressed transcripts, pairwise comparison analyses were carried out with MicroArray Suite Version 5 MicroArray Suite Version 5 (MASv5; Affymetrix). This approach, which is based on the Mann-Whitney pairwise comparison test, allows the ranking of results by concordance, as well as the calculation of significance (P value) of each identified change in gene expression. Statistically significant genes (P<0.05) were selected for further analysis. Moreover, statistically significant changes in mean expression values were determined by importing the data from MASv5 into GeneSpring 5 (Silicon Genetics, Redwood City, Calif.). A stepwise process was followed, first with normalizations. A per-chip followed by a per-gene normalization in order to facilitate direct comparison of biological differences. Next, a second method of filter using Affymetrix data and p value with cut-off of P<0.005 generated 4,841 genes which were used for subsequent analysis utilizing Hierarchical Clustering, k-means, Self Organization Map (SOM) utilizing GeneSpring 5.0.
RNAs isolated from treated and untreated cells were analyzed on oligonucleotide arrays representing 12,884 mouse genes (Affymetrix, http://www.affymetrix.com). Standard filtering (p<0.005) and hierarchical clustering algorithm (average linage method: GeneSpring software—Silicon Genetics) identified significant changes in the expression of 4, 841/12,885 genes with 166 genes showing 1.5 fold down-regulation and 35 genes up-regulation in the TCAP-1-treated cells compared to the untreated cells. […] A G-protein coupled receptor-related signal transduction pathway is indicated by the regulation of genes, CREM, AKAP8, AKAP95 and PDE6A. […] The upregulation in inducible nitric oxide (INOS), a intracellular voltage-gated chloride channel (CLCN3) and the serotonin transporter (SLC6A4) may reflect the down stream actions of cAMP-mediated signal cascade and indicates the potential for TCAP to be involved in neuronal signaling systems. A role in interneuron communication by TCAP is also indicated by the modulation of genes associated with the regulation of vesicle trafficking. […]

Gn11 cells [5] = test: cAMP assay in Gn11 cells (Example 7, I); format: cell-based, mouse; conditions: 10^-6 M
Procedure: (§2) Medium and peptide was removed and the cells were lysed using 350 uL of a 0.1 M HCL 0.1% Triton X-100 solution. […] All reactions were done in triplicates. Wells were set up for blanks, non-specific binding, total activity (TA), zero binding, five standards, and 12 samples. […] The plate was allowed to shake overnight. The following morning, the wells were rinsed three times with a 10 times diluted wash buffer solution. 50 uL of conjugate was added to the TA wells and 200 uL of p-Npp substrate was added to each well. The plate was covered again and incubated at room temp for one hour. At this point, 50 uL of stop solution was added to all wells and the absorbance was read at 405 nm using a Spectramax spectrophotometer. Three levels of controls were utlized: A blank tube which provides a measure of any reactivity between p-Npp substrate and IgG coated wells.; TA: measure of activity of alkaline phosphotase in conjugate, if any; NSB: measure of binding of conjugate to plate or to antibody; Bo: measure of binding conjugate to antibody (no sample and conjugate competition).

Gn11 cells [6] = test: cGMP assay in Gn11 cells (Example 7, I); format: cell-based, mouse; conditions: 10^-6 M
Procedure: as §2

[7] = micro injected into the basolateral amygdala, 3, 30, 300 pmoles
[8] = 16 hours, relative to untreated control
[9] = treated compared to untreated cells

## mouse urocortin: CRF family peptide compared with mouse TCAP-1 in Gn11 cells (DDPPLSIDLTFHLLRTLLELARTQSQRERAEQNRIIFDSV; ends and bridges not checked) [reference compound]
Gn11 cells [1]; 1 nM
  cAMP accumulation at 1 nM (in words): increased cAMP accumulation

## TCAP-1: synthetic mouse teneurin-1 C-terminal associated peptide, SEQ. ID. NO: 37 or 38, with amidation signal (QQLLGTGRVQGYDGYFVLSVEQYLELSDSANNIHFMRQSEIGRR-NH2)
rats; administration into the lateral ventricle or amygdala of rats
  acoustic startle response: normalized the acoustic startle response
rats; amygdala-injected, FIG. 24
  relation of effect on startle response to baseline startle response: inversely proportional to the baseline startle response
rats; [7]
  startle magnitude, animals with high treatment-to-baseline ratio (>1): significant (p<0.05) decrease
  startle magnitude, animals with low treatment-to-baseline ratio (<1): significant (p, 0.05) and does dependent increase
Gn11 cells [1]; 1 nM, 15 minutes
  increase of cAMP levels over the vehicle-treated cells: 45%
Gn11 cells [1]; 1 nM
  cAMP accumulation at 1 nM (in words): increased cAMP
Gn11 cells [1]; 10 nM, FIG. 25A
  cAMP accumulation at 10 nM (in words): without effect
Gn11 cells [1]; 100 nM, 15 minutes
  decrease of cAMP accumulation from control cells: 40%
Gn11 cells [1]; 100 nM, FIG. 25A
  cAMP accumulation at 100 nM (in words): decreased (p<0.05) cAMP
Gn11 cells [2]
  total protein concentration: significant increase; also recorded: stimulated protein synthesis
Gn11 cells [3]; 1 nM
  MTT activity (mitochondrial activity) at 1 nM: significant (p<0.05) increase; also recorded: increased MTT activity
Gn11 cells [3]; 100 nM
  MTT activity (mitochondrial activity) at 100 nM: decrease; also recorded: decreased (p<0.05) MTT activity
Gn11 cells [4]; 1 nM
  incidence of G1 phase at 1 nM: reduced (p<0.05) the incidence of G1 phase
Gn11 cells [4]; 100 nM
  incidence of G1 phase at 100 nM: increased (p<0.05) G1 phase
N38 hypothalamic cells; [8]
  Fold change AKAP8 (A kinase anchor protein 8): 1.58 fold
  Fold change AKAP95 (A kinase anchor protein 95): 0.60 fold
  Fold change ALK3 (Bone morphogenic protein receptor): 0.60 fold
  Fold change AP4S1 (Adaptor related protein complex): 1.52 fold
  Fold change ARF1 (ADP ribosylation factor 1): 0.63 fold
  Fold change BARK1 (β adrenergic receptor kinase 1): 0.61 fold
  Fold change BMP4 (Bone morphogenic protein-4): 0.52 fold
  Fold change CAII (Casein kinase II): 0.61 fold
  Fold change CAMIII (Calmodulin III): 0.53 fold
  Fold change CD95 (Fas antigen): 0.61 fold
  Fold change CLCN3 (Chloride channel protein 3): 1.66 fold
  Fold change CLM2-B (Cytohesin-2): 0.63 fold
  Fold change CRD-BP (CRD-binding protein): 0.59 fold
  Fold change CREMβ1 (cAMP-responsive element modulator): 1.61 fold
  Fold change DIP1/2 (DAB2 interacting protein): 0.68 fold
  Fold change ERK1 (Mitogen activated protein kinase): 0.64 fold
  Fold change FNBX (Ferredoxin-NADP reductase): 1.61 fold
  Fold change GAS5 (Growth arrest specific transcript): 0.46 fold
  Fold change GBP3 (Guanylate binding protein): 0.63 fold
  Fold change GDAP10 (Ganglioside induced diff. protein 10): 1.62 fold
  Fold change GP25L2 (gp25L brings cargo forward from ER): 1.53 fold
  Fold change GR (Glucocorticoid receptor): 0.66 fold
  Fold change IL1R (Interleukin 1 receptor): 0.60 fold
  Fold change INI1B (Integrase interacting protein 1B): 0.48 fold
  Fold change INOS (Inducible nitric oxide synthetase): 1.50 fold
  Fold change MKI67 (Cell cycle protein regulator): 1.70 fold
  Fold change MMP1 (Matrix metalloproteinase 1): 0.55 fold
  Fold change MMP10 (Matrix metalloproteinase 10): 0.59 fold
  Fold change MOP3 (Circadian rhythm regulator): 1.57 fold
  Fold change P202 (202 interferon activatable protein): 0.61 fold
  Fold change P204 (Interferon activatable protein): 1.85 fold
  Fold change PCDHγ (protocadherin γ): 0.42 fold
  Fold change PDE6A (cGMP Phosphodiesterase α): 1.68 fold
  Fold change PPAN (Peter Pan homologue): 0.62 fold
  Fold change PTK7 (Receptor protein tyrosine kinase): 1.53 fold
  Fold change RAB10 (Ras oncogene homologue): 1.62 fold
  Fold change SDPR (Serum deprivation response protein): 0.57 fold
  Fold change SLC6A4 (Serotonin transporter): 1.53 fold
  Fold change SSG1 (Steroid sensitive gene 1): 0.62 fold
  Fold change ST7 (Suppressor of tumourigenicity): 1.97 fold
  Fold change TTF-1IP (TTF-1 interacting peptide): 0.50 fold
  Fold change YIPID (Rab-mediated membrane transport): 1.88 fold
N38 hypothalamic cells; [9]
  number of genes showing 1.5 fold down-regulation: 166 genes
  number of genes showing up-regulation: 35 genes

## rat urocortin: CRF family peptide used for the purpose of a positive control (DDPPLSIDLTFHLLRTLLELARTQSQRERAEQNRIIFDSV; ends and bridges not checked; UniProt P55090 81-120, looked up) [reference compound]
Gn11 cells [5]
  cAMP accumulation, % of the vehicle-treated cells: 89.2±6.3%
Gn11 cells [6]
  cGMP accumulation, % of the control cells: 50.0±8.5%
Gn11 cells [6]; FIG. 16B
  cGMP accumulation (in words): significant (p<0.05) decrease
